Results on 13 compounds are retold here after ChEMBL document CHEMBL5579798, “Discovery of novel oridonin sulfamide derivatives as potent NLRP3 inhibitors by a visible-light photocatalysis-enabled peripheral editing” (Bioorg Med Chem Lett, 2024).

By CC50 is commonly meant the concentration that lowers cell viability or growth by half. A high value points to better tolerance by the cells.

The nature of the data set: Cytotoxicity against human THP-1 cells by CCK-8 method. The format is toxicity, cell-based.
For the compound `COc1ccc(S(=O)(=O)NCC[C@@H]2C(=O)[C@]34[C@H](O)[C@H]2CC[C@H]3[C@@]23CO[C@]4(O)[C@@H](O)[C@@H]2C(C)(C)CC[C@@H]3O)cc1`, the CC50 was > 100 µM.

`CC1(C)CC[C@H](O)[C@]23CO[C@](O)([C@@H](O)[C@H]12)[C@]12C(=O)[C@@H](CCNS(=O)(=O)c4ccsc4)[C@H](CC[C@@H]31)[C@H]2O`: the CC50 is > 100 µM.

For the compound `CC1(C)CC[C@H](O)[C@]23CO[C@](O)([C@@H](O)[C@H]12)[C@]12C(=O)[C@@H](CCNS(=O)(=O)/C=C/c4ccccc4)[C@H](CC[C@@H]31)[C@H]2O`, the CC50 was > 100 µM.

As for `CC1(C)CC[C@H](O)[C@]23CO[C@](O)([C@@H](O)[C@H]12)[C@]12C(=O)[C@@H](CCNS(=O)(=O)c4ccc(C(F)(F)F)cc4)[C@H](CC[C@@H]31)[C@H]2O`, the CC50 is > 100 µM.

As for `CC1(C)CC[C@H](O)[C@]23CO[C@](O)([C@@H](O)[C@H]12)[C@]12C(=O)[C@@H](CCNS(=O)(=O)c4ccc(C#N)cc4)[C@H](CC[C@@H]31)[C@H]2O`, the CC50 is > 100 µM.

With `CC(C)(C)OC(=O)NCC[C@@H]1C(=O)[C@]23[C@H](O)[C@H]1CC[C@H]2[C@@]12CO[C@]3(O)[C@@H](O)[C@@H]1C(C)(C)CC[C@@H]2O`, the CC50 was > 100 µM.

For `CC1(C)CC[C@H](O)[C@]23CO[C@](O)([C@@H](O)[C@H]12)[C@]12C(=O)[C@@H](CCNS(=O)(=O)c4ccc(F)cc4)[C@H](CC[C@@H]31)[C@H]2O`, the CC50 is > 100 µM.

Turning to `CC1(C)CC[C@H](O)[C@]23CO[C@](O)([C@@H](O)[C@H]12)[C@]12C(=O)[C@@H](CCNS(=O)(=O)c4ccccc4)[C@H](CC[C@@H]31)[C@H]2O`, the CC50 is > 100 µM.

As for `CC1(C)CC[C@H](O)[C@]23CO[C@](O)([C@@H](O)[C@H]12)[C@]12C(=O)[C@@H](CCNS(=O)(=O)c4cccnc4)[C@H](CC[C@@H]31)[C@H]2O`, the CC50 was > 100 µM.

In the case of `CC1(C)CC[C@H](O)[C@]23CO[C@](O)([C@@H](O)[C@H]12)[C@]12C(=O)[C@@H](CCN)[C@H](CC[C@@H]31)[C@H]2O`, the CC50 is > 100 µM.

For the compound `Cn1ccc(S(=O)(=O)NCC[C@@H]2C(=O)[C@]34[C@H](O)[C@H]2CC[C@H]3[C@@]23CO[C@]4(O)[C@@H](O)[C@@H]2C(C)(C)CC[C@@H]3O)n1`, the CC50 is > 100 µM.

As for `CN(C)c1cccc2c(S(=O)(=O)NCC[C@@H]3C(=O)[C@]45[C@H](O)[C@H]3CC[C@H]4[C@@]34CO[C@]5(O)[C@@H](O)[C@@H]3C(C)(C)CC[C@@H]4O)cccc12`, it took 96.8 µM to reach half-maximal cytotoxicity (CC50).

Compound `C=C1C(=O)[C@]23[C@H](O)[C@H]1CC[C@H]2[C@@]12CO[C@]3(O)[C@@H](O)[C@@H]1C(C)(C)CC[C@@H]2O` [ORIDONIN] showed a half-maximal cytotoxic concentration (CC50) of 19.8 µM.
